Test results as given in publication PMC12314892, “Macrocyclic Phage Display for Identification of Selective Protease Substrates” (Journal of the American Chemical Society, 2025).
*1 amine or outer side, *2 acyl side, *3 side chain or, on linkers, in order; H or OH if unused. Where a SMILES comes first, the peptide text is derived from it. Bridges are numbered along the chain shown (N, C = ends). The star is where a group is joined. X1 = NC(=O)Cc1cc(=O)oc2cc(NC(=O)[C@@H]3CCCN3C(=O)Cn3nc(C[*:1])cc3C[*:2])ccc12; X2 = NC(=O)Cc1cc(=O)oc2cc(NC(=O)[C@@H]3CCCN3C(=O)Cn3nc(C[*:2])cc3C[*:1])ccc12; AMC = Cc1cc(=O)oc2cc(N*)ccc12; Cbz = O=C(OCc1ccccc1)*

Legend:
Recombinant Human DPP4 = molecular target: T1, Recombinant Human DPP4 (Homo sapiens, UniProt P27487); assay: Kinetic evaluation of substrates; type: biochemical; conditions: for SI (selectivity index, coefficient of the proteases kcat/Km), FAPα vs DPP4: kcat/KM FAPα over kcat/KM DPP4
T1 construct: purchased Sino Biological 10688-HNCH-10
Experimental: (§1) Fluorogenic Substrate Cleavage Assay
(§2) The following proteases were used for the activity assay: Recombinant Human FAPα Protein, CF (R&D Systems, Catalog No.: 3715-SE-010), Recombinant Human Prolyl Oligopeptidase/PREP Protein, CF (R&D Systems, Catalog No.: 4308-SE-010). Recombinant Human DPP9 Protein, CF (R&D Systems, Catalog No.: 5419-SE-010). Recombinant Human DPP4 Protein (Sino Biological, Catalog No.: 10688-HNCH-10). The buffers used for the activity assay were: FAPα - 50 mM Tris, 1 M NaCl, 1 mg/mL BSA, pH 7.5, PREP- 25 mM Tris, 250 mM NaCl, 2.5 mM DTT, pH 7.5 (DTT was freshly added immediately before use), DPP9- 25 mM Tris, pH 7.5, DPP4- 25 mM Tris, pH
(§3) 7.5. The following commercial substrates were used: zGP-AMC (Bachem,Catalog No.: […]
(§4) conducted in Greiner Bio-One black microplates of 384 wells and polystyrene F-bottom (Catalog No.: 784076). All compounds were dissolved in DMSO at a concentration of 10 mM and then diluted into the respective buffer to the desired final concentration. The protease was added to the specified concentration before the fluorescence measurements. For fluorescence measurements, 2 μL of substrate was further diluted into 6 μL of buffer, followed by addition of 2 μL of enzyme in buffer. For no enzyme controls 2 μL of substrate was diluted into 8 μL of buffer.
(§5) The fluorescence was measured using a Cytation 3 plate reader (BioTek). All experiments have at least three technical replicates. All assays were conducted at 37°C for a minimum of 90 min, unless otherwise noted. Fluorescence measurements were performed at ex/em, 355/460 nm for ACC substrates. The substrates velocity was quantified by calculating the slope of the linear phase of the reaction as relative fluorescence units (RFU) per min.
(§6) Kinetic evaluation of substrates
(§7) To order to determine the kcat/KM, the previously indicated proteases were tested under their corresponding buffer conditions. Substrates were serially diluted in water, and 2 µL of each dilution was added to 6 µL of assay buffer in a 384-well plate. The plate was briefly centrifuged to ensure proper mixing and to eliminate air bubbles. Fluorescence measurements were initiated by adding 2 µL of the protease solution (prepared in activity buffer) to each well, yielding a final volume of 10 µL. Reactions were monitored at 37 °C for 60 minutes using a plate reader set to excitation/emission wavelengths of 355/460 nm. Control wells without enzyme contained 8 µL of assay buffer, instead of enzyme, and 2 µL of substrate. All measurements were performed in at least triplicate. The initial linear portion of each fluorescence progress curve was used to calculate initial reaction velocities (RFU/min). Calibration curves using free AMC were generated under the corresponding buffer and assay conditions to allow extrapolation of RFU values to µM concentrations. Michaelis-Menten kinetic parameters K M, kcat and kcat/,KM were determined using […]
(§8) GraphPad Prism version 10.4.1. […]
(§9) determined due to poor model fit. […]

Recombinant Human FAPα = molecular target: T2, Recombinant Human FAPα (Homo sapiens, UniProt Q12884); assay: Kinetic evaluation of substrates; type: biochemical; conditions: for kcat/KM / kcat / Km: 10 nM FAPα, 37 °C, 60 min, Michaelis-Menten fit, triplicates; for kcat / Km: ± SD; for Km: 50 mM Tris, 1 M NaCl, 1 mg/mL BSA, pH 7.5, ex/em 355/460 nm
T2 construct: purchased R&D Systems 3715-SE-010
T2 sequence (Q12884 1-760): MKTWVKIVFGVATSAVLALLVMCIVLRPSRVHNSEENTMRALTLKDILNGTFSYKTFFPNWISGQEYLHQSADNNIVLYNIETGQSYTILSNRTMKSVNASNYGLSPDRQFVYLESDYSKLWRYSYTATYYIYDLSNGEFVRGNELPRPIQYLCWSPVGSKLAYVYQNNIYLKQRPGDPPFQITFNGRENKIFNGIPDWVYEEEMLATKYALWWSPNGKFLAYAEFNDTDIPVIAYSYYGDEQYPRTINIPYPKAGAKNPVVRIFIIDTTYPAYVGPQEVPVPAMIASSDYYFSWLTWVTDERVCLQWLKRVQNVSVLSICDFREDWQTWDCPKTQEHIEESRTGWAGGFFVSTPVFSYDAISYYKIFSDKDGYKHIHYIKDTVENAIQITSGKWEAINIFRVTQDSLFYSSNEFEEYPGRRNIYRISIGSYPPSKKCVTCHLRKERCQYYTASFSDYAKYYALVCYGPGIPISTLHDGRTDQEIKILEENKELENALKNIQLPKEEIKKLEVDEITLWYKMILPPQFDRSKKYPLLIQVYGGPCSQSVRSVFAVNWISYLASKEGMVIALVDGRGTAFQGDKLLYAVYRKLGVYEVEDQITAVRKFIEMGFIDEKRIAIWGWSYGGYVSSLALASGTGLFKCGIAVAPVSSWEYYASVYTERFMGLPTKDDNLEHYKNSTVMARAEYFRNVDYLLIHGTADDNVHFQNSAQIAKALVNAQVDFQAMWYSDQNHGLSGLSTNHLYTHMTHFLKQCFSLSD
Experimental: as §1, §2, §3, §4, §5, §6, §7, §8, §9

[1] = 3 nM DPP4, 37 °C, 60 min, Michaelis-Menten fit, triplicates
[2] = 3 nM DPP4, 37 °C, 60 min, Michaelis-Menten fit, triplicates, ± SD

T1 sequence (P27487 whole entry): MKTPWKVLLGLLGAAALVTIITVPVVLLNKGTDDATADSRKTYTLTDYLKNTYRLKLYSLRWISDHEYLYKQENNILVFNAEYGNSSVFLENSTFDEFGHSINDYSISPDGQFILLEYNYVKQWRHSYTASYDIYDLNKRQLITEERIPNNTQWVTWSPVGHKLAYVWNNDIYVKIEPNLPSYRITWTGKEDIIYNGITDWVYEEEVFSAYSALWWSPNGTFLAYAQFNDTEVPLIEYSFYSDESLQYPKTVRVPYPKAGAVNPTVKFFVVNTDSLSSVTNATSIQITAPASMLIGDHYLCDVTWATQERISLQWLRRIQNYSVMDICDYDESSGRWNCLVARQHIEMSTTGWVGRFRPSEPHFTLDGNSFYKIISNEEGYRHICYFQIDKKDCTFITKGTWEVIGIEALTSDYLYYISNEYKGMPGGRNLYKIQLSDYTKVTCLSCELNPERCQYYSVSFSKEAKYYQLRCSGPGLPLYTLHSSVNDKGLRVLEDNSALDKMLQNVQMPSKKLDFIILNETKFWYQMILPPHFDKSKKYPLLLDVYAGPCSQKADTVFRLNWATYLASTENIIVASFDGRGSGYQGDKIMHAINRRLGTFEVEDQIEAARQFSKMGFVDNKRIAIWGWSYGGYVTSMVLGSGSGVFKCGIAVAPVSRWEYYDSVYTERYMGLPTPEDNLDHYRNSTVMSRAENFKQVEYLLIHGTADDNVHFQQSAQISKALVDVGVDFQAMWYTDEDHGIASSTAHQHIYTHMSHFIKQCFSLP

Km (Recombinant Human DPP4; 3 nM DPP4, 25 mM Tris, pH 7.5, 37 °C, 60 min, ex/em 355/460 nm, Michaelis-Menten fit, triplicates, ± SD) [µM]	Km (Recombinant Human FAPα) [µM]	SI (selectivity index, coefficient of the proteases kcat/Km), DPP4 vs FAPα (Recombinant Human FAPα; kcat/KM DPP4 over kcat/KM FAPα)	Structure (SMILES)	kcat/KM (Recombinant Human DPP4; [1]) [M⁻¹ s⁻¹]	kcat (Recombinant Human DPP4; [2]) [s⁻¹]	SI (selectivity index, coefficient of the proteases kcat/Km), FAPα vs DPP4 (Recombinant Human DPP4)	kcat/KM (Recombinant Human FAPα) [M⁻¹ s⁻¹]	kcat (Recombinant Human FAPα) [s⁻¹]
			CC(C)[C@@H]1NC(=O)[C@@H](N)CSCc2cc(n(CC(=O)N3CCC[C@H]3C(=O)Nc3ccc4c(CC(N)=O)cc(=O)oc4c3)n2)CSC[C@@H](C(=O)NCC(N)=O)NC(=O)[C@H](CC(=O)O)NC(=O)[C@H](C)NC(=O)[C@H](CC(N)=O)NC(=O)[C@H](CCC(N)=O)NC(=O)[C@H](Cc2ccccc2)NC(=O)[C@H](CO)NC1=O [FAP-33.2A6] (H-CVSFQNADCG-NH2; linker 1-9 via X1; N-terminus assumed)	5168	0.460 ± 0.018	6	28312	0.906 ± 0.050
			CC(C)C[C@@H]1NC(=O)[C@H](CC(N)=O)NC(=O)[C@H](CCC(N)=O)NC(=O)[C@H](Cc2ccccc2)NC(=O)[C@H](CO)NC(=O)[C@H](C(C)C)NC(=O)[C@@H](N)CSCc2cc(nn2CC(=O)N2CCC[C@H]2C(=O)Nc2ccc3c(CC(N)=O)cc(=O)oc3c2)CSC[C@@H](C(=O)NCC(N)=O)NC(=O)[C@H](CC(=O)O)NC1=O [FAP-33.2] (H-CVSFQNLDCG-NH2; linker 1-9 via X2; N-terminus assumed)			FAPα >>>DPP4	23633	0.709 ± 0.034
52 ± 4	103 ± 31	597	Cc1cc(=O)oc2cc(NC(=O)[C@@H]3CCCN3C(=O)CN)ccc12 [GP-AMC] (H-Gly-Pro-{AMC})	380000	19.9 ± 0.6		637	
	145 ± 60		Cc1cc(=O)oc2cc(NC(=O)[C@@H]3CCCN3C(=O)CNC(=O)OCc3ccccc3)ccc12 [zGP-AMC] (Cbz-Gly-Pro-{AMC})				155793	22.59 ± 4.99
